The numbers were not newly measured in patent US20220387439A1, “ANTI-INFLAMMATORY PHARMACEUTICAL COMPOSITION COMPRISING PROBIOTICS AND ANTIBIOTICS, AND METHOD USING SAME” (priority 2019, published 2022), which cites them from elsewhere.

Structures are written as SMILES.

For the series, the system named is patient with otitis media. Conditions: Patient 1, otitis media for more than several years; antibiotics taken at other hospitals.

For the molecule `N[C@@H](C(=O)N[C@@H]1C(=O)N2C(C(=O)O)=C(Cl)CS[C@H]12)c1ccccc1` [cefaclor], the “treatment effect of antibiotics taken earlier” value is given as “no treatment effect”.
